In brackets after ≈: the same amount, converted by molar mass.

For the data set the following is noted: buffer; pH 7.4; 200.0 µM.
In general, solubility (kinetic) refers to the concentration staying in solution when a stock, usually in DMSO, is diluted into the medium. In turn, `O=C(NCc1ccccc1Br)C1CCCO1` (configuration not stated) registered a solubility (kinetic) of over 42.6 µg/mL.
Molecule `CCC1CCCCN1Cc1nc(Cc2ccccc2Cl)no1` (configuration not stated) gave a solubility (kinetic) of 16.3 µg/mL (≈ 51 µM).
The value for `COc1ccc(Cl)cc1S(=O)(=O)n1c([N+](=O)[O-])cnc1C` was 31.1 µg/mL (≈ 93.7 µM); that for `CCOCCCNC(=O)/C(C#N)=C/c1cc(C)c(O)c(C)c1` was 7 µg/mL (≈ 23.2 µM).
`COc1ccc(CCNCc2ccccc2F)cc1.O=C(O)C(=O)O` came in with a solubility (kinetic) of 46.4 µg/mL.
The molecule `COc1ccc(CC(=O)NCCc2ccc(OC)c(OC)c2)cc1` registered a kinetic solubility of over 49.4 µg/mL.
In turn, `Cc1ccc2c(c1)c1c3n2CCN(CC(N)=O)C3CCC1` (configuration not stated) showed a solubility (kinetic) of 1.7 µg/mL (≈ 6 µM).
Consider `CCn1c(=O)c2cc(C(=O)NC(C)C)sc2c2ccccc21`, for which the solubility (kinetic) stood at 1 µg/mL (≈ 3.18 µM). Against the preceding molecule, the solubility kinetic is about 1.7-fold lower.
Consider `Cc1ccc(S(=O)(=O)/N=C(/Nc2c(C)cccc2C)c2ccccc2)cc1`, for which the solubility (kinetic) stood at 7.3 µg/mL (≈ 19.3 µM).
In the case of `Cc1cc(/C=C2\SC(=O)N(C)C2=O)c(C)n1-c1ccc(O)cc1`, the kinetic solubility stood at 5.6 µg/mL (≈ 17.1 µM).
In turn, `Cc1cc2occ(CC(=O)NC3(C)CCS(=O)(=O)C3)c2cc1C` (configuration not stated) yielded a solubility (kinetic) of over 50.3 µg/mL.
The value for `CS(=O)(=O)N1CCN(Cc2cc(=O)n3ccsc3n2)CC1` was over 49.3 µg/mL; that for `Cc1nc2ncnn2c(C)c1Cc1cccc(C(F)(F)F)c1` was over 45.9 µg/mL; that for `CCN(C(=O)COC(=O)c1cccnc1SC)C1CCCCC1` was over 50.5 µg/mL.
In turn, `COc1ccccc1-c1c(C)nn2c(N3CCOCC3)cc(C)nc12` showed a solubility (kinetic) of over 50.8 µg/mL.
The value for `CCc1ccc2oc(-c3ccc(NC(C)=O)cc3)nc2c1` was 0.8 µg/mL (≈ 2.85 µM); that for `Cn1c(=O)n(Cc2ccc(Br)cc2)c2ccccc21` was 25.7 µg/mL (≈ 81 µM).
Turning to `CNC(=O)c1cc2cc(Cc3ccccc3Cl)ccc2oc1=O`, the solubility (kinetic) was under 0.7 µg/mL.
`O=C(CSc1nc2ccccc2o1)N/N=C/c1ccc(C(=O)O)cc1` displayed a kinetic solubility of over 53.3 µg/mL.
For `CC1CCC(NCCNC(=O)c2ccco2)CC1` (configuration not stated), the kinetic solubility was 26.7 µg/mL (≈ 107 µM).
`CC(=O)NC(C(=O)c1ccccc1)N1CCCCC1` (configuration not stated) gave a kinetic solubility of 29.1 µg/mL (≈ 112 µM).
Turning to `Fc1ccccc1N1CCN(CCCc2ccccc2)CC1`, the solubility (kinetic) turned out to be 19.6 µg/mL (≈ 65.7 µM).
The value for `CCOC(=O)C(=O)Nc1ncc(Cl)s1` was 34.2 µg/mL (≈ 146 µM); that for `CN(CCN1CCOCC1)Cc1nc(-c2cccs2)no1` was 44.5 µg/mL (≈ 144 µM); that for `CCc1ccc(CN2CCN(c3ncccn3)CC2)cc1` was 29.9 µg/mL (≈ 106 µM).
In turn, `Cc1ccc(Cl)c(OCC(=O)Nc2ccccc2C(=O)NC2CC2)c1` had a kinetic solubility of 5.9 µg/mL (≈ 16.4 µM).
`C=CCSc1nnc(NC(=O)C2=COCCO2)s1` registered a solubility (kinetic) of over 42.8 µg/mL.
As to `COC(=O)c1sc(NC(=O)c2c(-c3ccccc3)noc2C)nc1C`, the kinetic solubility came out at 0.8 µg/mL (≈ 2.24 µM).
Regarding `O=S(=O)(Nc1cccc(S(=O)(=O)N2CCCCC2)c1)c1ccc(Cl)s1`, the solubility (kinetic) was over 63.1 µg/mL.
In turn, `CC(C)c1ccc(NC(=S)Nc2ccc3[nH]c(=O)[nH]c3c2)cc1` had a kinetic solubility of 16.7 µg/mL (≈ 51.2 µM).
Turning to `COc1cccc(-c2cc(C(=O)NC3CCCCC3)no2)c1`, the solubility (kinetic) is under 0.3 µg/mL.
As to `O=C(CCc1ccccc1)NCc1ccc2c(c1)OCO2`, the solubility (kinetic) was over 42.5 µg/mL.
Turning to `Cc1ccc(-c2nc(C(Cl)Cl)c3ccccc3n2)cc1`, the kinetic solubility is under 0.3 µg/mL.
The value for `O=C(CCS(=O)(=O)Cc1ccccc1F)NCc1ccccc1Cl` was 4.3 µg/mL (≈ 11.6 µM).
Next, `Cc1noc(C)c1C(=O)Nc1ccc2ccccc2c1`: 11.2 µg/mL (≈ 42.1 µM); `CCn1cc(CCC(=O)NC2CCCC2)c2ccccc21`: 40.4 µg/mL (≈ 142 µM).
Molecule `CCOC(=O)[C@@H]1CCN(Cc2ccccc2)C[C@H]1c1ccccc1.Cl` came in with a kinetic solubility of 30.7 µg/mL.
In turn, `CCOc1ccc(NC(=O)N(CCN(C)C)C(C)c2cccnc2)cc1` (configuration not stated) came in with a kinetic solubility of over 53.5 µg/mL.
Next, `O=C(c1ccc(COCC(F)(F)F)o1)N1CCCC1`: 40.3 µg/mL (≈ 145 µM); `Nc1cccc(-c2cnc3ccccc3n2)c1`: over 33.2 µg/mL; `CCOc1ccc(-c2c(=O)n(OCC)c3ccccc3[n+]2[O-])cc1`: 21.1 µg/mL (≈ 64.7 µM).
The value for `CC(Oc1ccc(Br)cc1Cl)C(=O)Nc1ccncc1` (configuration not stated) was 45.9 µg/mL (≈ 129 µM).
As to `Cn1c(C(=O)N[C@@H](C(=O)O)c2ccccc2)cc2cc(F)ccc21`, the kinetic solubility was 45.4 µg/mL (≈ 139 µM).
With `CC(Sc1ccc(S(=O)(=O)N2CCOCC2)cn1)c1ccccc1Cl` (configuration not stated), the solubility (kinetic) was found to be 5.9 µg/mL (≈ 14.8 µM). This solubility kinetic lies about 7.7-fold lower than the previous one.
`O=C(O)C1CCCCC1C(=O)Nc1ccc(OCc2ccccc2)cc1` (configuration not stated) showed a kinetic solubility of 44.2 µg/mL (≈ 125 µM).
`O=[N+]([O-])c1cnc2ccc3ccccc3c2c1` showed a kinetic solubility of 3.1 µg/mL (≈ 13.8 µM).
On to `Cc1ccccc1C(=O)Nc1ccc(S(=O)(=O)Nc2onc(C)c2C)cc1`, for which the solubility (kinetic) turned out to be 50.5 µg/mL (≈ 131 µM).
`O=C(COC(=O)c1ccc2c(c1)OCCO2)Nc1ccc(F)cc1` came in with a solubility (kinetic) of 2.6 µg/mL (≈ 7.85 µM).
The value for `COc1ccc(CNC(=O)CN(c2ccccc2OC)S(=O)(=O)c2cccs2)cc1` was 10.7 µg/mL (≈ 24 µM).
In the case of `CCOC(=O)CC1C(=O)NCCN1C(=O)c1cccc(OC)c1` (configuration not stated), the solubility (kinetic) is 44.4 µg/mL (≈ 139 µM).
On to `COc1ccc(CN2C(=O)c3cccc4cccc(c34)C2=O)cc1`, for which the kinetic solubility came to 0.9 µg/mL (≈ 2.84 µM).
Molecule `O=C(C1CCC(=O)N1Cc1cccs1)N1CCOCC1` (configuration not stated) displayed a solubility (kinetic) of over 44.2 µg/mL.

The record behind these values is PubChem BioAssay AID1996.
